Data as given in patent US20250136618A1, “ANTIBIOTIC PYRAZINOTHIAZINE DERIVATIVES AND PROCESS OF PREPARATION THEREOF” (Bugworks Research India PVT Ltd, priority 2021, published 2025).
In brackets after ≈: the same amount, converted by molar mass.

Experiments:
Assay type in all cases: cell-based
[1] = system: Acinetobacter baumannii ATCC 19606; test: Minimum Inhibitory Concentration (MIC) in LB media; conditions: Acinetobacter baumannii, ATCC19606
From the text: (§1) The compounds of Formula Ia and Formula Ib are of interest due to their potent antibacterial effects. The ability of the compounds disclosed herein to achieve an antibacterial effect may be evaluated with regard to their ability to inhibit the growth of bacterial species like Escherichia coli ATCC 25922, Staphylococcus aureus ATCC 29213, Klebsiella pneumoniae ATCC 13883, Acinetobacter baumannii ATCC 19606, Pseudomonas aeruginosa ATCC 27853 and Enterococcus faecalis ATCC 29212 using an assay based on the following Minimum Inhibitory Concentration (MIC) protocol:
(§2) The test bacteria were grown in Luria Bertani Broth (HIMEDIA M1245), 25 g of the powder was dissolved in 1000 ml distilled water and sterilized by autoclaving at 15 lbs pressure (121° C.) for 20 minutes. The medium sterility was checked by incubating at 37° C. for a period of 48 h. Bacterial cultures that were stored as glycerol stocks at −80° C. were subcultured on LB agar plates to obtain isolated colonies. A single colony of each strain was cultured in LB broth. The cultures were incubated at 37° C., 200 rpm till they reached an optical density (OD at 600 nm) of 0.8 to 1. This log phase culture was diluted in LB broth to a cell number of 5-8*10^5 CFU/mL to be used as inoculum for MIC experiments. Test compounds were dissolved in dimethyl sulfoxide (DMSO) to a stock concentration of 4 mg/ml. A two-fold dilution series of this DMSO stock was prepared in a 96 well V bottom microtitre plate from rows A to H. A 3 μL volume of these dilutions are transferred to a 96-well flat bottom microtitre assay plate. Controls to monitor the effects of DMSO and media sterility were included. Each well was inoculated with 150 μL of the above diluted culture. The plates were incubated at 37° C. overnight in a humidified incubator. The following morning, the plates were read using a Spectrophotometer at 600 nm wavelength. […] The antibacterial activity (MIC) determined against representative gram-positive (S. aureus, E. faecalis) and gram-negative (E. coli, Aeruginosa, K. pneumoniae, and A. baumannii) pathogen are reported Table 1.

[2] = system: Enterococcus faecalis ATCC 29212; test: Minimum Inhibitory Concentration (MIC) in LB media; conditions: Enterococcus faecalis, ATCC29212, read-out: Minimum Inhibitory Concentration E. faecalis ATCC 29212
From the text: as §1, §2

[3] = system: Escherichia coli ATCC 25922; test: Minimum Inhibitory Concentration (MIC) in LB media; conditions: Escherichia coli, ATCC25922, read-out: Minimum Inhibitory Concentration E. coli ATCC 25922
From the text: as §1, §2

[4] = system: Klebsiella pneumoniae ATCC 13883; test: Minimum Inhibitory Concentration (MIC) in LB media; conditions: Klebsiella pneumoniae, ATCC13883, read-out: Minimum Inhibitory Concentration K. pneumoniae ATCC 13883
From the text: as §1, §2

[5] = system: Pseudomonas aeruginosa ATCC 27853; test: Minimum Inhibitory Concentration (MIC) in LB media; conditions: Pseudomonas aeruginosa, ATCC27853
From the text: as §1, §2

[6] = system: Staphylococcus aureus ATCC 29213; test: Minimum Inhibitory Concentration (MIC) in LB media; conditions: Staphylococcus aureus, ATCC29213, read-out: Minimum Inhibitory Concentration S. aureus ATCC 29213
From the text: as §1, §2

[7] = system: CHO-K1 cells; test: In-vitro micronucleus assay
Method: Genetic toxicology studies were performed on the compounds of the present disclosure to assess their ability to cause DNA damage. The in-vitro micronucleus assay measured the concentration (μM) of the compound at which micronuclei formation occurred. A micronuclei formation at lower concentration indicates more genetic damage or genotoxicity.
Micronucleus formation is a hallmark of genotoxicity, and the micronucleus assay is an important component of genotoxicity screening. Micronuclei are chromatin-containing bodies that represent fragments or even whole chromosomes that were not incorporated into a daughter cell nucleus at mitosis. The purpose of the assay is to detect agents that induce chromosome damage leading to the induction of micronuclei in interphase cells. The in vitro micronucleus assay was conducted in CHO-K1 cells according to the procedure described by Diaz, D et al [Mutat Res. 630(1-2):1-13. […] The formation of the micronucleus is identified by image-based high content analysis from binucleated cells.

[8] = target: hERG potassium channel (Homo sapiens (Human), UniProt Q12809); test: hERG inhibition assay (Qpatch HTX automated electrophysiology); conditions: CHO cell line expressing hERG, whole-cell patch clamp
Chain of hERG potassium channel (Q12809 whole entry): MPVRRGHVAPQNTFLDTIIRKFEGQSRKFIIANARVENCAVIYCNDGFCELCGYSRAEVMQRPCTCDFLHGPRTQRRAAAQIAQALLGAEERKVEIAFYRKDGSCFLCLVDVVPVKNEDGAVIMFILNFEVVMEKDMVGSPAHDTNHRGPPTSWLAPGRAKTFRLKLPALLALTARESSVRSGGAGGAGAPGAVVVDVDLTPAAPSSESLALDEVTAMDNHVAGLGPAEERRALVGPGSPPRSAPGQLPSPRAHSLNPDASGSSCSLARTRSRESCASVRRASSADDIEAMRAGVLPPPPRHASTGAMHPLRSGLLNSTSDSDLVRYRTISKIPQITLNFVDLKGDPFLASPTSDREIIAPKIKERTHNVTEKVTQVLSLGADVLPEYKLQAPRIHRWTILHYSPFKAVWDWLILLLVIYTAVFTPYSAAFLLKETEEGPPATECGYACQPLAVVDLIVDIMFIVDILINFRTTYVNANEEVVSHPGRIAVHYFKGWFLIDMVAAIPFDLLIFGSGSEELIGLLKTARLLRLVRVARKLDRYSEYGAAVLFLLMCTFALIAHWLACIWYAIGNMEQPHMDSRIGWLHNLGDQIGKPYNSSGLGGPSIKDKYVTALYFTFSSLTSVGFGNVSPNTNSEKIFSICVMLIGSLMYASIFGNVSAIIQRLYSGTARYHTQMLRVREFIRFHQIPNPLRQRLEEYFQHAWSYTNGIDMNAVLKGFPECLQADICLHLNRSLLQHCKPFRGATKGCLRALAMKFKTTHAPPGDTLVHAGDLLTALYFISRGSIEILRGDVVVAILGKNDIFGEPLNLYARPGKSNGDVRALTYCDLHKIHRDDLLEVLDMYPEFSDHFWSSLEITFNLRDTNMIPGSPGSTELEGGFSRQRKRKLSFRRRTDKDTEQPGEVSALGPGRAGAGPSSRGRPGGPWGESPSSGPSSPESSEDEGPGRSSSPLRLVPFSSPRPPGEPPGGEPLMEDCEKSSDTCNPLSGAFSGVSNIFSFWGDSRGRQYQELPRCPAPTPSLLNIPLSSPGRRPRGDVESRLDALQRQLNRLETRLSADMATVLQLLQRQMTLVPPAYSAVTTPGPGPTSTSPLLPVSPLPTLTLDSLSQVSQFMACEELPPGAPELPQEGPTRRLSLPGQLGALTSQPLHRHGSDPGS
Method: Electrophysiological recordings were made from a Chinese Hamster Ovary cell line stably expressing the full-length hERG potassium channel. Single cell ionic currents were measured in whole-cell patch clamp configuration at room temperature (21-23° C.) using the Qpatch HTX platform (Sophion). Intracellular solution contained (mM): 120 KF, 20 KCl, 10 EGTA, 10 HEPES and was buffered to pH 7.3. […] Cells were clamped at a holding potential of −80 mV. Cells were stepped to +20 mV for 2 s then −40 mV for 3 s before returning to the holding potential. […] Compounds were then incubated for 2 minutes prior to a second measurement of ion channel current using an identical pulse train.

[9] = system: Acinetobacter baumannii; test: MIC90 determination, clinical strains (CLSI); conditions: N=38
[10] = system: Citrobacter freundii; test: MIC90 determination, clinical strains (CLSI); conditions: N=19
[11] = system: Enterobacter cloacae; test: MIC90 determination, clinical strains (CLSI); conditions: N=26
[12] = system: Escherichia coli; test: MIC90 determination, clinical strains (CLSI); conditions: N=38
[13] = system: Klebsiella aerogenes, K. oxytoca; test: MIC90 determination, clinical strains (CLSI); conditions: N=17
[14] = system: Klebsiella pneumoniae; test: MIC90 determination, clinical strains (CLSI); conditions: N=86
[15] = system: Morganella morganii; test: MIC90 determination, clinical strains (CLSI); conditions: N=11
[16] = system: Proteus mirabilis; test: MIC90 determination, clinical strains (CLSI); conditions: N=12
[17] = system: Providencia rettgeri, P. stuartii; test: MIC90 determination, clinical strains (CLSI); conditions: N=12
[18] = system: Pseudomonas aeruginosa; test: MIC90 determination, clinical strains (CLSI); conditions: N=34
[19] = system: Serratia marcescens; test: MIC90 determination, clinical strains (CLSI); conditions: N=15

MIC [1] [µg/mL] | MIC [2] [µg/mL] | MIC [3] [µg/mL] | MIC [4] [µg/mL] | MIC [5] [µg/mL] | MIC [6] [µg/mL] | Compound | genotoxicity risk (in words) [7] | % (in-vitro micronucleus assay) ([7]; Chinese hamster) [%] | In vitro micronucleus forming concentration ([7]; Chinese hamster) [µM] | IC50 [8] [µM] | also measured
0.03 (≈ 0.0613 µM) | 0.03 (≈ 0.0613 µM) | 0.06 (≈ 0.123 µM) | 0.06 (≈ 0.123 µM) | 1 (≈ 2.04 µM) | < 0.015 | [2H]C([2H])([2H])N1C(=O)CNc2ccc(OCCNCC3CN(c4cnc5c(n4)NC(=O)CS5)C(=O)O3)nc21 (stereo in doubt) [Compound 9, (R)-5-(((2-((4-(methyl-d3)-3-oxo-1,2,3,4-tetrahydropyrido[2,3-b]pyrazin-6-yl)oxy)ethyl)amino)methyl)-3-(3-oxo-3,4-dihydro-2H-pyrazino[2,3-b][1,4]thiazin-6-yl) oxazolidin-2-one] | completely devoid of any genotoxicity risk | 0.51 | >1000 | 141 | –
0.4 (≈ 1.21 µM) | 0.4 (≈ 1.21 µM) | 0.012 (≈ 0.0362 µM) | 0.05 (≈ 0.151 µM) | 0.1 (≈ 0.302 µM) | 0.4 (≈ 1.21 µM) | O=C(O)c1cn(C2CC2)c2cc(N3CCNCC3)c(F)cc2c1=O [Ciprofloxacin, reference compound] | – | – | – | – | –
0.06 (≈ 0.123 µM) | 0.125 (≈ 0.257 µM) | 0.03 (≈ 0.0617 µM) | 0.06 (≈ 0.123 µM) | 1 (≈ 2.06 µM) | < 0.015 | CN1C(=O)CNc2ccc(OCCNC[C@@H]3CN(c4cnc5c(n4)NC(=O)CS5)C(=O)O3)nc21 [Compound 5, (R)-5-(((2-((4-methyl-3-oxo-1,2,3,4-tetrahydropyrido[2,3-b]pyrazin-6-yl)oxy)ethyl)amino)methyl)-3-(3-oxo-3,4-dihydro-2H-pyrazino[2,3-b][1,4]thiazin-6-yl)oxazolidin-2-one] | completely devoid of any genotoxicity risk | 0.5 | >1000 | > 300 | micronucleus formation (in words) [7]: did not induce micronucleus formation
0.06 (≈ 0.123 µM) | 0.06 (≈ 0.123 µM) | 0.06 (≈ 0.123 µM) | 0.06 (≈ 0.123 µM) | 0.5 (≈ 1.03 µM) | < 0.015 | CN1C(=O)CNc2ccc(OCCNC[C@H]3CN(c4cnc5c(n4)NC(=O)CS5)C(=O)O3)nc21 [Compound 6, (S)-5-(((2-((4-methyl-3-oxo-1,2,3,4-tetrahydropyrido[2,3-b]pyrazin-6-yl)oxy)ethyl)amino)methyl)-3-(3-oxo-3,4-dihydro-2H-pyrazino[2,3-b][1,4]thiazin-6-yl)oxazolidin-2-one] | completely devoid of any genotoxicity risk | 0.4 | >1000 | > 300 | micronucleus formation (in words) [7]: did not induce micronucleus formation
0.03 (≈ 0.0595 µM) | 0.06 (≈ 0.119 µM) | 0.03 (≈ 0.0595 µM) | 0.06 (≈ 0.119 µM) | 1 (≈ 1.98 µM) | < 0.015 | CN1C(=O)CNc2cc(F)c(OCCNC[C@@H]3CN(c4cnc5c(n4)NC(=O)CS5)C(=O)O3)nc21 [Compound 7, (R)-5-(((2-((7-fluoro-4-methyl-3-oxo-1,2,3,4-tetrahydropyrido[2,3-b]pyrazin-6-yl)oxy)ethyl)amino)methyl)-3-(3-oxo-3,4-dihydro-2H-pyrazino[2,3-b][1,4]thiazin-6-yl)oxazolidin-2-one] | completely devoid of any genotoxicity risk | 0.41 | >1000 | > 300 | –
0.06 (≈ 0.119 µM) | 0.125 (≈ 0.248 µM) | 0.03 (≈ 0.0595 µM) | 0.06 (≈ 0.119 µM) | 1 (≈ 1.98 µM) | < 0.015 | CN1C(=O)CNc2cc(F)c(OCCNC[C@H]3CN(c4cnc5c(n4)NC(=O)CS5)C(=O)O3)nc21 [Compound 8, (S)-5-(((2-((7-fluoro-4-methyl-3-oxo-1,2,3,4-tetrahydropyrido [2,3-b]pyrazin-6-yl)oxy)ethyl)amino)methyl)-3-(3-oxo-3,4-dihydro-2H-pyrazino[2,3-b][1,4]thiazin-6-yl)oxazolidin-2-one] | completely devoid of any genotoxicity risk | 0.5 | >1000 | > 300 | –
– | – | – | – | – | – | C[C@@H](O)[C@H]1C(=O)N2C(C(=O)O)=C(S[C@@H]3CN[C@H](C(=O)N(C)C)C3)[C@H](C)[C@H]12 [Meropenem, reference compound] | – | – | – | – | MIC 90 Acinetobacter baumannii [9]: >8 µg/mL; MIC 90 Citrobacter freundii [10]: 8 µg/mL (≈ 20.9 µM); MIC 90 Enterobacter cloacae [11]: 16 µg/mL (≈ 41.7 µM); MIC 90 Escherichia coli [12]: 2 µg/mL (≈ 5.22 µM); MIC 90 Klebsiella aerogenes, K. oxytoca [13]: 16 µg/mL (≈ 41.7 µM); MIC 90 Klebsiella pneumoniae [14]: 16 µg/mL (≈ 41.7 µM); MIC 90 Morganella morganii [15]: 0.12 µg/mL (≈ 0.313 µM); MIC 90 Proteus mirabilis [16]: 1 µg/mL (≈ 2.61 µM); MIC 90 Providencia rettgeri, P. stuartii [17]: 4 µg/mL (≈ 10.4 µM); MIC 90 Pseudomonas aeruginosa [18]: 16 µg/mL (≈ 41.7 µM); MIC 90 Serratia marcescens [19]: 16 µg/mL (≈ 41.7 µM)
– | – | – | – | – | – | CO[C@@]12[C@H](COC(N)=O)C3=C(C(=O)C(C)=C(N)C3=O)N1C[C@@H]1N[C@@H]12 [Mitomycin C, reference compound] | – | – | – | – | % (in-vitro micronucleus assay) ([7]; CHO-K1 cells): 1.98%; In vitro micronucleus forming concentration ([7]; CHO-K1 cells): 0.300 µM
